Data on 35 compounds can be found in ChEMBL document CHEMBL1681710, “Pyridyl amides as potent inhibitors of T-type calcium channels” (Bioorg Med Chem Lett, 2011).

pIC50, pKi: −log10 of the molar value. Activity calls are given as the source filed them.

A word on the pKi: it is the negative decadic logarithm of the Ki, by convention in mol/L. For orientation: pIC50 means the negative decadic logarithm of the IC50, by convention in mol/L. One may read the inhibition in vivo as the share of the control response that was lost under treatment. Usually clearance stands for a measure of how efficiently the substance is removed, as volume per time. A word on the half-life: it is the time needed for the level to fall by half in the phase considered. One may read the Vd as a proportionality between amount in the body and measured concentration, not a real space. In general, bioavailability refers to the share of a dose that reaches the circulation, judged against a reference dose that is usually intravenous. The term Cmax denotes the maximum level reached in the sampled fluid or tissue.

Series [1] addresses T1, Voltage-dependent T-type calcium channel subunit alpha-1I (Homo sapiens, UniProt Q9P0X4). As to the kind of experiment: Antagonist activity at Cav3.3 alpha1i expressed in HEK293 cells by depolarized FLIPR assay. It counts as functional, cell-based.
Series [2] addresses T1, Voltage-dependent T-type calcium channel subunit alpha-1I. The experiment in a line: Binding affinity to Cav3.3 alpha1i.
The target in series [3] is Voltage-gated inwardly rectifying potassium channel KCNH2 (Homo sapiens, UniProt Q12809). As to the kind of experiment: Inhibition of human ERG.
Voltage-gated inwardly rectifying potassium channel KCNH2, sequence (Q12809 whole entry): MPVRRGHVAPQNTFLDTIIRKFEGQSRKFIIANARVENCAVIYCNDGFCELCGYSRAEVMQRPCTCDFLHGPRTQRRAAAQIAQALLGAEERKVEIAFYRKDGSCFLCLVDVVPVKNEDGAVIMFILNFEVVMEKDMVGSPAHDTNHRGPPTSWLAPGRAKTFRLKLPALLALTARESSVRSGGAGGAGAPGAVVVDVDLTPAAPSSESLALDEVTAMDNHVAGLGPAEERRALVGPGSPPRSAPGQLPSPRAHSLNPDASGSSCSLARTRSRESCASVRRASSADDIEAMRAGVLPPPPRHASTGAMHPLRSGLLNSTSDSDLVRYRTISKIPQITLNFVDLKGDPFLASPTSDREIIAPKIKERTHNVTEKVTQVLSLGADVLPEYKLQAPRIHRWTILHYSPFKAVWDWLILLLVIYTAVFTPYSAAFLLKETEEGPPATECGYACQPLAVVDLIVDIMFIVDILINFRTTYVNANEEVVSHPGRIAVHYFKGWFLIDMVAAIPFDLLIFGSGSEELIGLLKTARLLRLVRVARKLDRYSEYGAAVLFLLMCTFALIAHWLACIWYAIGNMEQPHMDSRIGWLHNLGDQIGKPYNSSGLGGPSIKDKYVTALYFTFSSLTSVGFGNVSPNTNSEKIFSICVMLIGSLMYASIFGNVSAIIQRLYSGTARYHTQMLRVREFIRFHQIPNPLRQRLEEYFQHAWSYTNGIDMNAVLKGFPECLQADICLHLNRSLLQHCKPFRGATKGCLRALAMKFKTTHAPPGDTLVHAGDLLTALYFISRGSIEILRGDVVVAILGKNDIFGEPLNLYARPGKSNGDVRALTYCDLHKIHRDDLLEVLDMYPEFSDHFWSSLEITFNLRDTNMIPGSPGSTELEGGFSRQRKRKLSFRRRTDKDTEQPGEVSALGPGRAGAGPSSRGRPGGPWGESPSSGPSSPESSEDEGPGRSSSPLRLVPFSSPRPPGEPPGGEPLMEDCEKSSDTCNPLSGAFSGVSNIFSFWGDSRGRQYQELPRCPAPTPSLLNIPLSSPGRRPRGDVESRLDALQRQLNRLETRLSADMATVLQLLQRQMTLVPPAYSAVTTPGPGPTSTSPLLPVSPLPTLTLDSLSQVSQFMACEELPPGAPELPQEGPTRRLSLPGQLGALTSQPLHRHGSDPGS
Series [4] can be described thus: Binding affinity to L-type Ca2+ channel.
The subject of series [5] is Rattus norvegicus. As to the kind of experiment: Antiepileptic activity in WAG/Rij rat seizure model assessed as reduction in total seizure time measured for 4 hrs at 10 mg/kg, po by radiotelemetric physiologic monitor. It counts as functional.
The target of series [6] is T1, Voltage-dependent T-type calcium channel subunit alpha-1I. As to the kind of experiment: Antagonist activity at Cav3.3 alpha1i expressed in HEK293 cells at -100 mV by standard voltage-clamp electrophysiology assay. Format: functional, cell-based.
A short description of series [7]: Plasma clearance in dog at 0.5 mg/kg, iv. It counts as ADME, organism-based, Canis lupus familiaris. On the set-up: dose 0.5 mg/kg, route intravenous.
Series [8] in a line: Half life in dog at 0.5 mg/kg, iv. Format: ADME, organism-based, Canis lupus familiaris. On the set-up: dose 0.5 mg/kg, route intravenous. The following applies: in vivo.
Series [9] is described as follows: Volume of distribution at steady state in dog at 0.5 mg/kg, iv. On the set-up: dose 0.5 mg/kg, route intravenous. To be noted: in vivo. It counts as ADME, organism-based, Canis lupus familiaris.
The nature of series [10]: Bioavailability in dog at 0.5 mg/kg, iv. To be noted: in vivo. It counts as ADME, organism-based, Canis lupus familiaris.
Series [11] is described as follows: Plasma clearance in rhesus monkey at 0.5 mg/kg, iv. Format: ADME, organism-based, Macaca mulatta. Also noted: dose 0.5 mg/kg, route intravenous.
A short description of series [12]: Half life in rhesus monkey at 0.5 mg/kg, iv. Format: ADME, organism-based, Macaca mulatta. Also noted: dose 0.5 mg/kg, route intravenous. The following applies: in vivo.
Series [13] in a line: Volume of distribution at steady state in rhesus monkey at 0.5 mg/kg, iv. It counts as ADME, organism-based, Macaca mulatta. Also noted: dose 0.5 mg/kg, route intravenous. The following applies: in vivo.
The nature of series [14]: Bioavailability in rhesus monkey at 0.5 mg/kg, iv. It counts as ADME, organism-based, Macaca mulatta. To be noted: in vivo.
The subject of series [15] is Rattus norvegicus. As to the kind of experiment: Effect on sleep architecture in rat assessed as reduction in active awake at 3 mg/kg, po up to 4 hrs. It counts as functional, organism-based. Also noted: dose 3 mg/kg.
For series [16], the system named is Rattus norvegicus. The experiment in a line: Effect on sleep architecture in po dosed rat assessed as reduction in active awake up to 4 hrs. Format: functional, organism-based.
Series [17] has as its system Rattus norvegicus. The experiment in a line: Effect on sleep architecture in rat assessed as reduction in REM sleep at 3 mg/kg, po up to 4 hrs. Format: functional, organism-based. Also noted: dose 3 mg/kg.
Series [18] has as its system Rattus norvegicus. As to the kind of experiment: Effect on sleep architecture in rat assessed as increase in delta sleep at 3 mg/kg, po up to 4 hrs. Format: functional, organism-based. On the set-up: dose 3 mg/kg.
A short description of series [19]: Cmax in non-implanted rat plasma after 1.2 hrs. It counts as ADME, organism-based.
For series [20], the target named is Voltage-dependent T-type calcium channel subunit alpha-1G (Homo sapiens, UniProt O43497). The experiment in a line: Inhibition of Cav3.1 alpha1G at -80 mV holding potential by tandard voltage-clamp electrophysiology assay.
Series [21] deals with Voltage-dependent T-type calcium channel subunit alpha-1H (Homo sapiens, UniProt O95180). As to the kind of experiment: Inhibition of Cav3.2 alpha1H at -80 mV holding potential by tandard voltage-clamp electrophysiology assay.
The target in series [22] is Voltage-dependent L-type calcium channel subunit alpha-1C (Homo sapiens, UniProt Q13936). As to the kind of experiment: Inhibition of L-type Cav1.2 at -80 mV holding potential by tandard voltage-clamp electrophysiology assay.
The target of series [23] is Voltage-dependent P/Q-type calcium channel subunit alpha-1A (Homo sapiens, UniProt O00555). The experiment in a line: Inhibition of P/Q-type Cav2.1 at -80 mV holding potential by tandard voltage-clamp electrophysiology assay.
Series [24] deals with Voltage-dependent N-type calcium channel subunit alpha-1B (Homo sapiens, UniProt Q00975). The experiment in a line: Inhibition of N-type Cav2.2 at -80 mV holding potential by tandard voltage-clamp electrophysiology assay.
In series [25] the target is Voltage-dependent R-type calcium channel subunit alpha-1E (Homo sapiens, UniProt Q15878). The experiment in a line: Inhibition of R-type Cav2.3 at -80 mV holding potential by tandard voltage-clamp electrophysiology assay.
The species entered for the next series is Mus musculus. As to the kind of experiment: Inhibition of high-fat diet-induced weight gain in mouse. It counts as functional, organism-based.
Series [26] is described as follows: Half life in rat at 2 mg/kg, iv. To be noted: in vivo.
Series [27] in a line: Plasma clearance in rat at 2 mg/kg, iv.
The nature of series [28]: Bioavailability in rat at 2 mg/kg, iv and 10 mg/kg, po. The following applies: in vivo.
Series [29] can be described thus: Volume of distribution at steady state in rat at 2 mg/kg, iv. The following applies: in vivo.

T1 sequence (Q9P0X4 whole entry): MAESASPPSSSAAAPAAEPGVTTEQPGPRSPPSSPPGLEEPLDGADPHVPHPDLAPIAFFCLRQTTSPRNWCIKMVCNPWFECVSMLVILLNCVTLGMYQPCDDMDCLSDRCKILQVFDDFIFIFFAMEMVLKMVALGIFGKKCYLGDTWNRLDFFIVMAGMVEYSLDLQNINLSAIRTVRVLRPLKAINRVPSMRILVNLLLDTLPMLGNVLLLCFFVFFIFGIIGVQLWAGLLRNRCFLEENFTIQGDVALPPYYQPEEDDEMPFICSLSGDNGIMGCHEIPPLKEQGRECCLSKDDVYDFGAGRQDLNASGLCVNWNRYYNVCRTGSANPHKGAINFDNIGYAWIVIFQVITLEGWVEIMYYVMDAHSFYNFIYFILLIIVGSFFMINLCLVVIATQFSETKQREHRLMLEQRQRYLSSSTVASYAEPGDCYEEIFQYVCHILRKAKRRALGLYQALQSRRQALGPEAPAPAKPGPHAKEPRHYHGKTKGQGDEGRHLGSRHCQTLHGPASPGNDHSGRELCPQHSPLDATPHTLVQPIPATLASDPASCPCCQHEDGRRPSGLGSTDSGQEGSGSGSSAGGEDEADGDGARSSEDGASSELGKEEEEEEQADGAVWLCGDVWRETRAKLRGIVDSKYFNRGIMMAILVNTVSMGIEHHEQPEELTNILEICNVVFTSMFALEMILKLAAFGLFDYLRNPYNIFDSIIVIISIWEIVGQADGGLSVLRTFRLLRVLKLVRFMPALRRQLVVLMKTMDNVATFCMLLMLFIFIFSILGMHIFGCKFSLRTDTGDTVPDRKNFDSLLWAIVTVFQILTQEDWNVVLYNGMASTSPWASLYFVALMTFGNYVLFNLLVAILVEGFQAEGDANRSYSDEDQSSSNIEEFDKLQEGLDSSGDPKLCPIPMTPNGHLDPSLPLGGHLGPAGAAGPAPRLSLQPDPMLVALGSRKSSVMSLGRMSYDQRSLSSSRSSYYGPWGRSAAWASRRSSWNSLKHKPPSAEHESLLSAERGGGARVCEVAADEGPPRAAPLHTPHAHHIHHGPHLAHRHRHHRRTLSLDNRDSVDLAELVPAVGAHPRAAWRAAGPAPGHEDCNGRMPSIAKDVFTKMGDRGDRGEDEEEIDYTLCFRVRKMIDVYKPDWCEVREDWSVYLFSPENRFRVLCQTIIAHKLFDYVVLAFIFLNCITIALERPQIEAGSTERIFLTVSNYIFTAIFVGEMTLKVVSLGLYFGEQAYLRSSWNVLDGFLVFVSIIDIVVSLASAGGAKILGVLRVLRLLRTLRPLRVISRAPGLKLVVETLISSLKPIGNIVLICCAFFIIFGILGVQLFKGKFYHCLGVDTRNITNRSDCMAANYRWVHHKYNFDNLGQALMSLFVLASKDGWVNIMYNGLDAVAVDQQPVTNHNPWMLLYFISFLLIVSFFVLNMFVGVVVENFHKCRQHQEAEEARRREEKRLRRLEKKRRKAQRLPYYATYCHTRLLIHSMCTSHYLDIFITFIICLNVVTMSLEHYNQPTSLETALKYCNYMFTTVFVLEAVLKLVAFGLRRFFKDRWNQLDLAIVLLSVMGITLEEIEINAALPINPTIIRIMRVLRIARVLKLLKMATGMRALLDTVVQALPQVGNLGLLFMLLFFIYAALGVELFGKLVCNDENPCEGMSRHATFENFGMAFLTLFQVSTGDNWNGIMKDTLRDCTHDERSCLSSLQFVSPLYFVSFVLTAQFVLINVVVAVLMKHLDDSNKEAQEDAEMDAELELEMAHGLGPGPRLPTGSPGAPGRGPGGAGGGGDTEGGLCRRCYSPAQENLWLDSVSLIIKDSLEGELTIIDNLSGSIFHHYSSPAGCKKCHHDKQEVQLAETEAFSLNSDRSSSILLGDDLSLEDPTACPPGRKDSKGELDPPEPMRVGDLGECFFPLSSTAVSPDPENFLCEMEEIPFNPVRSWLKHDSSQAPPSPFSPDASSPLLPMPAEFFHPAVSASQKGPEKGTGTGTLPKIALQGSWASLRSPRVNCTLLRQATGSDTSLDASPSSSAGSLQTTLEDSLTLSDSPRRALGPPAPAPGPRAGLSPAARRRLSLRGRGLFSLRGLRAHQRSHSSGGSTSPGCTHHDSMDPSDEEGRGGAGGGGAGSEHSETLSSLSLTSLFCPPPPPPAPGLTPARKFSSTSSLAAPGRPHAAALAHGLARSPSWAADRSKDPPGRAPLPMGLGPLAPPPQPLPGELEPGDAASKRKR

Regarding `CCCOc1ccc([C@@H](C)NC(=O)Cc2ccc(C3CC3)cc2)nc1`, the IP in series [1] is 11 nM. On to `COc1ccc([C@@H](C)NC(=O)Cc2ccc(C#N)cc2)nc1`, for which the IP in series [1] was more than 5000 nM. As to `CC(C)c1ccc(CC(=O)N[C@H](C)c2ccc(O)cn2)cc1`, the IP in [1] was 920 nM. As for `COc1ccc([C@@H](C)NC(=O)Cc2ccc(S(C)(=O)=O)cc2)nc1`, the IP in series [1] was more than 10000 nM. On to `C[C@H](c1ccccc1)N(C)C(=O)Cc1ccc(C(C)(C)C)cc1`, for which the IP in [1] is more than 10000 nM. Regarding `COc1ccc([C@@H](C)NC(=O)Cc2ccc(C(C)(C)C)cc2)nc1`, the negative-log Ki (pKi) in [2] was 8.30. Further, the IP in series [1] was found to be 22 nM. Also, the pIC50 in [3] and in series [4] was less than 5.00 throughout. Also, in the series with Rattus norvegicus [5], the inhibition in vivo at 10 mg/kg stood at 49%. With `COc1ccc(CC(=O)N[C@H](C)c2ccc(OC)cn2)cc1`, the IP in series [1] was 1740 nM.

With `COc1cccc([C@@H](C)NC(=O)Cc2ccc(C(C)(C)C)cc2)c1`, the IP in series [1] was found to be 146 nM.

Regarding `C[C@@H](NC(=O)Cc1ccc(C(C)(C)C)cc1)c1ccc(Cl)cc1`, the IP in [1] is 123 nM. Consider `COc1ccc([C@@H](C)NC(=O)Cc2ccc(C(C)C)cc2)nc1`, for which the IP in [1] was 45 nM.

On to `CCCOc1ccc([C@@H](C)NC(=O)Cc2ccc(C(C)C)cc2)nc1`, for which the IP in series [1] was determined as 10 nM. On to `C[C@@H](NC(=O)Cc1ccc(C2CC2)cc1)c1ccc(OCC(F)(F)F)cn1`, for which, in series [2], the pKi is 8.92. In addition, the IP in series [1] turned out to be 6 nM. In addition, the pIC50 in series [3] was less than 5.00; in series [4] it was less than 5.00; in series [6] it was 5.43; in series [20], 7.05; in series [21] it was 7.04; in series [22], less than 4.52. Besides, the pIC50 in series [23], in series [24] and in series [25] was less than 4.52 each time. Moreover, the inhibition in vivo at 10 mg/kg in the series on Rattus norvegicus [5] turned out to be 87%. For the same compound, the values for the clearance in series [7], in series [11] and in [27] were 0.9 mL/min/kg, 17 mL/min/kg and 6 mL/min/kg, respectively. Also, the half-life in [8] is 11 h; in series [12] it was 0.9 h; in series [26] it was 1.5 h. The Vd in [9] turned out to be 0.7 L/kg; in [13] it was 0.9 L/kg; in [29], 0.8 L/kg. The bioavailability in series [10] amounted to 43%; in series [14] it was 7%; in series [28], 68%. In addition, the result in the series with Rattus norvegicus [15], in the series with Rattus norvegicus [17] and in the series with Rattus norvegicus [18] was Active. Moreover, in the series on Rattus norvegicus [16], the Activity result was “Dose-dependent effect”. Besides, the Cmax in series [19] turned out to be 4 µM. In addition, in the series filed under Mus musculus, the inhibition entry is “Active”.

Regarding `C[C@@H](NC(=O)Cc1ccc(C2CC2)cc1)c1ccc(OCc2ccccc2)cn1`, in series [1], the IP worked out at 21 nM. `CC(NC(=O)Cc1ccc(C(C)(C)C)cc1)c1ccccc1Cl` (racemic): the IP in series [1] is 332 nM. Same read-out and setting: then `COc1ccc([C@@H](C)NC(=O)Cc2ccc(Cl)cc2)nc1`, with 1330 nM. On to `COc1ccc([C@@H](C)NC(=O)Cc2ccc(Oc3ccccc3)cc2)nc1`, for which, in series [1], the IP is 439 nM. Regarding `CC(C)(C)c1ccc(CC(=O)NC(C)(C)c2ccccc2)cc1`, the IP in [1] stood at 5480 nM. As to `CC(NC(=O)Cc1ccc(C(C)(C)C)cc1)c1cccnc1` (racemic), in series [1], the IP worked out at 5380 nM. On the same count and under the same terms, then `COc1ccc([C@@H](C)NC(=O)Cc2cccc(Cl)c2)nc1`, with 2780 nM; and `C[C@@H](NC(=O)Cc1ccc(C(C)(C)C)cc1)c1ccc(Cl)cn1`, with 30 nM; and `CC(NC(=O)Cc1ccc(C(C)(C)C)cc1)c1ccncc1` (racemic), with more than 10000 nM. Take `CC(C)c1ccc(CC(=O)N[C@H](C)c2ccc(OCc3ccccc3)cn2)cc1`: the IP in [1] was 16 nM.

Consider `COc1ccc([C@@H](C)NC(=O)Cc2ccccc2Cl)nc1`, for which the IP in series [1] is more than 5000 nM.

In the case of `C[C@H](NC(=O)Cc1ccc(C(C)(C)C)cc1)c1ccccc1`, the IP in [1] was 4680 nM. In the case of `COc1ccc([C@@H](C)NC(=O)Cc2ccc(C(C)(C)O)cc2)nc1`, the IP in [1] turned out to be 1130 nM. On the same count and under the same terms, then `COc1ccc([C@@H](C)NC(=O)Cc2ccccc2)nc1`, with more than 10000 nM; and `C[C@@H](NC(=O)Cc1ccc(C(C)(C)C)cc1)c1ccccc1`, with 235 nM. Consider `COC(=O)c1ccc(CC(=O)N[C@H](C)c2ccc(OC)cn2)cc1`, for which the IP in series [1] worked out at 1450 nM. `COc1ccc([C@@H](C)NC(=O)Cc2ccc(C(C)(C)C)cc2)cc1`: the IP in [1] came out at 146 nM. As for `CC(C)c1ccc(CC(=O)N[C@H](C)c2ccc(OCC(F)(F)F)cn2)cc1`, the IP in [1] was found to be 5 nM.

Consider `CC(NC(=O)Cc1ccc(C(C)(C)C)cc1)c1ccccn1` (racemic), for which the IP in series [1] turned out to be 427 nM. In the case of `COc1ccc([C@@H](C)NC(=O)Cc2ccc(Cl)c(Cl)c2)nc1`, in [1], the IP is 252 nM. Regarding `COc1ccc([C@@H](C)NC(=O)Cc2ccc(C3CC3)cc2)nc1`, the IP in series [1] is 70 nM. In the case of `COc1ccc([C@@H](C)NC(=O)Cc2ccc(F)cc2)nc1`, the IP in series [1] is more than 10000 nM.

For the compound `C[C@@H](NC(=O)Cc1ccc(C2CC2)cc1)c1ccc(O)cn1`, the IP in series [1] was determined as 1720 nM.
